Reference: US20230190760A1, “ADVANTAGEOUS THERAPIES FOR DISORDERS MEDIATED BY IKAROS OR AIOLOS” (C4 Therapeutics, Inc., priority 2020, published 2023)
Entries after “also recorded” stand apart in the source; their conditions may differ.

Key:
[1] = system: IKZF1/3; experiment: Biomarker assessment in MM and ALCL tumor bearing studies; type: in vivo
[2] = system: RPMI-8226 tumors; experiment: RPMI-8226 xenograft, crossover from pomalidomide to Compound 1; type: in vivo, mice; details: 100 μg/kg/day
Protocol: Vehicle treated animals were treated for 28 days until tumors reached a MTV of 2211 mm^3. […] Data are expressed as MTV±SEM.
Tumor growth was monitored throughout the study. […] Measurements were twice weekly. The health of the mice was monitored, and noteworthy clinical observations were recorded. Acceptable toxicity was defined as a group's mean BW loss of less than 20% during the study and not more than one treatment related death among ten treated animals, or 10%.
Animals were weighed on a twice weekly schedule.

[3] = system: Interferon-response proteins in DL-40 ALCL xenograft tumors; experiment: Global proteomics and gene ontology of DL-40 ALCL xenograft tumors, 48 hours after dose; type: in vivo, mice; parameters: Log2 vs Vehicle, 0AS1: dose or concentration left out as unconfirmed
Protocol: […] Gene ontology analysis was done by using BINGO, a Java-based tool that is implemented as a plugin for Cytoscape. Default settings were used to assess the overexpression of GO categories and the interactions among altered proteins were determined using the STRING database, with a cutoff score of 700.

[4] = system: WSU-DLCL2; experiment: Anti-proliferative activity, 96 hours; details: Homo sapiens, WSUDLCL2, 96 h
[5] = system: germinal center B-cell like DLBCL lines; experiment: Anti-cancer activity in GCB-DLBCL cell lines; type: cell-based; details: six of eleven responsive, read-out: mean IC50 amongst the responsive lines
[6] = system: activated B-cell DLBCL lines; experiment: Anti-cancer activity in ABC-DLBCL cell lines; type: cell-based; details: three of six responsive, read-out: mean IC50 amongst the responsive lines
[7] = system: TMD8 DLBCL tumors; details: Compound 1 50 μg/kg, Ibrutinib 12500 μg/kg
Protocol: A xenograft study was conducted in female CB17 SCID mice bearing TMD8 DLBCL tumors. Female SCID mice were inoculated subcutaneously in the right flank with 5×10^6 tumors cells in 0.2 mL of PBS supplemented with matrigel (PBS:matrigel=1:1). Tumor volume was measured twice weekly in two dimensions using calipers, and volume was calculated using the formula: (w2×l)/2=mm^3, assuming 1 mg is equivalent to 1 mm^3 of tumor volume. […] Treatment began on Day 0 with established subcutaneous TMD8 tumors with a mean tumor volume (MTV) of 107-108 mm^3.
All agents were administered to mice bearing TMD8 tumors on day 0 and dosed PO daily until individual tumor volumes reached or exceeded 1500 mm^3, at which point dosing stopped and the individual mouse was removed from the study. Compound 1 was dosed at 50 μg/kg and was formulated in PEG400 (30% v/v)+70% v/v HPMC (1% w/v) in citrate buffer (pH 5). Ibrutinib was dosed at 12.5 mg/kg and formulated in 0.5% MC+0.4% cremophor EL+0.1% sodium lauryl sulfate. Compound 1 was also dosed in combination with Ibrutinib at their respective single agent doses. Body weight and MTV was measured on a 2× weekly schedule and the study end point was when all mice were removed from the study on day 54. Statistical analysis was performed using survival analysis and the Logrank test (Mantel-Cox test). Data are expressed as MTV±SEM.

O=C1CC[C@H](N2C(=O)c3cccc4c(Cc5ccc(CN6CCOCC6)cc5)ccc2c34)C(=O)N1 (single isomer, unassigned) [Compound 1]
degradation of both IKZF1/3 [1]: > 75%
duration of IKZF1/3 degradation [1]: 24 h
tumor volume after crossover from pomalidomide [2]: rapid tumor regression; also recorded: began to decrease
Log2 vs Vehicle, AAAS ([3]; 0.1 nM for 48 hr): 0.043
Log2 vs Vehicle, ABCE1 ([3]; 0.1 nM for 48 hr): −0.112
Log2 vs Vehicle, ADAR ([3]; 0.1 nM for 48 hr): 0.065
Log2 vs Vehicle, ARIHI ([3]; 0.1 nM for 48 hr): 0.023
Log2 vs Vehicle, B2M ([3]; 0.1 nM for 48 hr): −0.048
Log2 vs Vehicle, BST2 ([3]; 0.1 nM for 48 hr): 0.241
Log2 vs Vehicle, CAMK2A ([3]; 0.1 nM for 48 hr): −0.697
Log2 vs Vehicle, CAMK2B ([3]; 0.1 nM for 48 hr): 0.054
Log2 vs Vehicle, CAMK2D ([3]; 0.1 nM for 48 hr): 0.038
Log2 vs Vehicle, CAMK2G ([3]; 0.1 nM for 48 hr): −0.054
Log2 vs Vehicle, CD44 ([3]; 0.1 nM for 48 hr): −0.377
Log2 vs Vehicle, CIITA ([3]; 0.1 nM for 48 hr): −0.076
Log2 vs Vehicle, DDX58 ([3]; 0.1 nM for 48 hr): 0.455
Log2 vs Vehicle, EIF2AK2 ([3]; 0.1 nM for 48 hr): 0.527
Log2 vs Vehicle, EIF4A1 ([3]; 0.1 nM for 48 hr): 0.13
Log2 vs Vehicle, EIF4A2 ([3]; 0.1 nM for 48 hr): 0.08
Log2 vs Vehicle, EIF4A3 ([3]; 0.1 nM for 48 hr): 0.079
Log2 vs Vehicle, EIF4E2 ([3]; 0.1 nM for 48 hr): 0.179
Log2 vs Vehicle, EIF4E3 ([3]; 0.1 nM for 48 hr): 0.208
Log2 vs Vehicle, EIF4G1 ([3]; 0.1 nM for 48 hr): −0.048
Log2 vs Vehicle, EIF4G2 ([3]; 0.1 nM for 48 hr): −0.071
Log2 vs Vehicle, EIF4G3 ([3]; 0.1 nM for 48 hr): −0.108
Log2 vs Vehicle, FLNA ([3]; 0.1 nM for 48 hr): 1.179
Log2 vs Vehicle, FLNB ([3]; 0.1 nM for 48 hr): 0.234
Log2 vs Vehicle, GBP1 ([3]; 0.1 nM for 48 hr): 0.343
Log2 vs Vehicle, GBP2 ([3]; 0.1 nM for 48 hr): −0.269
Log2 vs Vehicle, GBP4 ([3]; 0.1 nM for 48 hr): 0.388
Log2 vs Vehicle, HERC5 ([3]; 0.1 nM for 48 hr): −0.149
Log2 vs Vehicle, HLA-A ([3]; 0.1 nM for 48 hr): −0.128
Log2 vs Vehicle, HLA-B ([3]; 0.1 nM for 48 hr): 0.066
Log2 vs Vehicle, HLA-C ([3]; 0.1 nM for 48 hr): −0.065
Log2 vs Vehicle, HLA-DPA1 ([3]; 0.1 nM for 48 hr): −0.139
Log2 vs Vehicle, HLA-DPB1 ([3]; 0.1 nM for 48 hr): −0.023
Log2 vs Vehicle, HLA-DQA2 ([3]; 0.1 nM for 48 hr): −0.144
Log2 vs Vehicle, HLA-DQB1 ([3]; 0.1 nM for 48 hr): 0.055
Log2 vs Vehicle, HLA-DRA ([3]; 0.1 nM for 48 hr): −0.133
Log2 vs Vehicle, HLA-DRB1 ([3]; 0.1 nM for 48 hr): −0.1
Log2 vs Vehicle, HLA-E ([3]; 0.1 nM for 48 hr): −0.167
Log2 vs Vehicle, HLA-F ([3]; 0.1 nM for 48 hr): 0.408
Log2 vs Vehicle, ICAM1 ([3]; 0.1 nM for 48 hr): 0.31
Log2 vs Vehicle, IFI30 ([3]; 0.1 nM for 48 hr): 0.217
Log2 vs Vehicle, IFI35 ([3]; 0.1 nM for 48 hr): 0.153
Log2 vs Vehicle, IFIT2 ([3]; 0.1 nM for 48 hr): −0.186
Log2 vs Vehicle, IFIT3 ([3]; 0.1 nM for 48 hr): 0.736
Log2 vs Vehicle, IR.F9 ([3]; 0.1 nM for 48 hr): 0.535
Log2 vs Vehicle, IRF1 ([3]; 0.1 nM for 48 hr): 0.147
Log2 vs Vehicle, IRF2 ([3]; 0.1 nM for 48 hr): −0.265
Log2 vs Vehicle, IRF3 ([3]; 0.1 nM for 48 hr): 0.114
Log2 vs Vehicle, IRF4 ([3]; 0.1 nM for 48 hr): −0.452
Log2 vs Vehicle, IRF5 ([3]; 0.1 nM for 48 hr): 0.192
Log2 vs Vehicle, IRF7 ([3]; 0.1 nM for 48 hr): 0.264
Log2 vs Vehicle, ISG15 ([3]; 0.1 nM for 48 hr): 0.241
Log2 vs Vehicle, ISG20 ([3]; 0.1 nM for 48 hr): −0.168
Log2 vs Vehicle, J A KI ([3]; 0.1 nM for 48 hr): 0.036
Log2 vs Vehicle, KPNA1 ([3]; 0.1 nM for 48 hr): 0.045
Log2 vs Vehicle, KPNA2 ([3]; 0.1 nM for 48 hr): 0.058
Log2 vs Vehicle, KPNA3 ([3]; 0.1 nM for 48 hr): 0
Log2 vs Vehicle, KPNA4 ([3]; 0.1 nM for 48 hr): 0.075
Log2 vs Vehicle, KPNB1 ([3]; 0.1 nM for 48 hr): 0.038
Log2 vs Vehicle, MAPK3 ([3]; 0.1 nM for 48 hr): −0.042
Log2 vs Vehicle, MT2A ([3]; 0.1 nM for 48 hr): −0.297
Log2 vs Vehicle, MX1 ([3]; 0.1 nM for 48 hr): 1.715
Log2 vs Vehicle, MX2 ([3]; 0.1 nM for 48 hr): 0.83
Log2 vs Vehicle, NCAM1 ([3]; 0.1 nM for 48 hr): −0.127
Log2 vs Vehicle, NDC1 ([3]; 0.1 nM for 48 hr): −0.063
Log2 vs Vehicle, NEDD4 ([3]; 0.1 nM for 48 hr): 0.375
Log2 vs Vehicle, NUP35 ([3]; 0.1 nM for 48 hr): −0.023
Log2 vs Vehicle, NUP37 ([3]; 0.1 nM for 48 hr): −0.009
Log2 vs Vehicle, NUP43 ([3]; 0.1 nM for 48 hr): −0.042
Log2 vs Vehicle, NUP50 ([3]; 0.1 nM for 48 hr): −0.009
Log2 vs Vehicle, NUP54 ([3]; 0.1 nM for 48 hr): 0.014
Log2 vs Vehicle, NUP62 ([3]; 0.1 nM for 48 hr): −0.019
Log2 vs Vehicle, NUP85 ([3]; 0.1 nM for 48 hr): −0.05
Log2 vs Vehicle, NUP88 ([3]; 0.1 nM for 48 hr): 0.031
Log2 vs Vehicle, NUP93 ([3]; 0.1 nM for 48 hr): 0.029
Log2 vs Vehicle, NUP107 ([3]; 0.1 nM for 48 hr): 0.033
Log2 vs Vehicle, NUP133 ([3]; 0.1 nM for 48 hr): −0.019
Log2 vs Vehicle, NUP153 ([3]; 0.1 nM for 48 hr): −0.013
Log2 vs Vehicle, NUP155 ([3]; 0.1 nM for 48 hr): 0.001
Log2 vs Vehicle, NUP160 ([3]; 0.1 nM for 48 hr): 0.026
Log2 vs Vehicle, NUP188 ([3]; 0.1 nM for 48 hr): 0.029
Log2 vs Vehicle, NUP205 ([3]; 0.1 nM for 48 hr): −0.001
Log2 vs Vehicle, NUP210 ([3]; 0.1 nM for 48 hr): 0.045
Log2 vs Vehicle, NUP214 ([3]; 0.1 nM for 48 hr): −0.08
Log2 vs Vehicle, NUPL2 ([3]; 0.1 nM for 48 hr): 0.073
Log2 vs Vehicle, OAS2 ([3]; 0.1 nM for 48 hr): 0.478
Log2 vs Vehicle, OAS3 ([3]; 0.1 nM for 48 hr): 0.884
Log2 vs Vehicle, OASL ([3]; 0.1 nM for 48 hr): 0.111
Log2 vs Vehicle, P0M121 ([3]; 0.1 nM for 48 hr): −0.05
Log2 vs Vehicle, P0M121C ([3]; 0.1 nM for 48 hr): −0.039
Log2 vs Vehicle, PDE12 ([3]; 0.1 nM for 48 hr): 0.013
Log2 vs Vehicle, PIAS1 ([3]; 0.1 nM for 48 hr): −0.114
Log2 vs Vehicle, PINI ([3]; 0.1 nM for 48 hr): 0.05
Log2 vs Vehicle, PLCG1 ([3]; 0.1 nM for 48 hr): 0.052
Log2 vs Vehicle, PML ([3]; 0.1 nM for 48 hr): 0.176
Log2 vs Vehicle, PPM1B ([3]; 0.1 nM for 48 hr): −0.001
Log2 vs Vehicle, PRKCD ([3]; 0.1 nM for 48 hr): 0.506
Log2 vs Vehicle, PSMB8 ([3]; 0.1 nM for 48 hr): 0.021
Log2 vs Vehicle, PTPN1 ([3]; 0.1 nM for 48 hr): 0.009
Log2 vs Vehicle, PTPN6 ([3]; 0.1 nM for 48 hr): 0.402
Log2 vs Vehicle, PTPN11 ([3]; 0.1 nM for 48 hr): 0.001
Log2 vs Vehicle, RAE1 ([3]; 0.1 nM for 48 hr): −0.034
Log2 vs Vehicle, RANBP2 ([3]; 0.1 nM for 48 hr): −0.044
Log2 vs Vehicle, RNASEL ([3]; 0.1 nM for 48 hr): −0.218
Log2 vs Vehicle, RPS27A ([3]; 0.1 nM for 48 hr): −0.054
Log2 vs Vehicle, SAMHD1 ([3]; 0.1 nM for 48 hr): 0.128
Log2 vs Vehicle, SP100 ([3]; 0.1 nM for 48 hr): −0.028
Log2 vs Vehicle, STAT1 ([3]; 0.1 nM for 48 hr): 0.218
Log2 vs Vehicle, STAT2 ([3]; 0.1 nM for 48 hr): 0.271
Log2 vs Vehicle, TPR ([3]; 0.1 nM for 48 hr): −0.053
Log2 vs Vehicle, TRIM5 ([3]; 0.1 nM for 48 hr): 0.107
Log2 vs Vehicle, TRIM14 ([3]; 0.1 nM for 48 hr): 0.183
Log2 vs Vehicle, TRIM21 ([3]; 0.1 nM for 48 hr): 0.175
Log2 vs Vehicle, TRIM22 ([3]; 0.1 nM for 48 hr): 0.331
Log2 vs Vehicle, TRIM25 ([3]; 0.1 nM for 48 hr): 0.161
Log2 vs Vehicle, TRIM26 ([3]; 0.1 nM for 48 hr): 0.019
Log2 vs Vehicle, TRIM35 ([3]; 0.1 nM for 48 hr): 0.144
Log2 vs Vehicle, TRIM38 ([3]; 0.1 nM for 48 hr): 0.119
Log2 vs Vehicle, TYK2 ([3]; 0.1 nM for 48 hr): −0.039
Log2 vs Vehicle, UBA7 ([3]; 0.1 nM for 48 hr): 0.366
Log2 vs Vehicle, UBE2E1 ([3]; 0.1 nM for 48 hr): −0.218
Log2 vs Vehicle, UBE2L6 ([3]; 0.1 nM for 48 hr): 0.13
Log2 vs Vehicle, UBE2N ([3]; 0.1 nM for 48 hr): 0.02
Log2 vs Vehicle, VCAM1 ([3]; 0.1 nM for 48 hr): −0.744
network impacted (gene ontology) ([3]; 48 hours after oral 100 μg/kg): Interferon (IFN) signaling was the most prominent network impacted
Log2 vs Vehicle, 0AS1 ([3]; for 48 hr): 1.414
IC50 [4]: 2.8 nM
IC50 [5]: 12 nM
IC50 [6]: 1.6 nM
Median Survival ([7]; Combination of both, PO daily): 30
Statistical Significance Compared to Vehicle ([7]; survival, Logrank, Combination): 0.02
